Measured values reported in US20130150325A1, “3-(Fluorovinyl)pyrazoles and their use” (BAYER INTELLECTUAL PROPERTY GMBH, priority 2011, published 2013).

Test system: HCT 116 cells transfected with a luciferase reporter under the control of an HIF-responsive sequence
Assay: HIF-luciferase assay
Format: cell-based
Conditions: Homo sapiens; HCT 116 HIF-luciferase reporter cells, hypoxia chamber (1% O2), 24 h; in some cases means of up to four individual determinations
Procedure: HCT 116 cells were transfected in a stable manner with a plasmid which contained a luciferase reporter under the control of an HIF-responsive sequence. These cells were sown in microtitre plates [20 000 cells/cavity in RPMI 1640 medium with 10% foetal calf serum (FCS) and 100 μg/ml of hygromycin]. Incubation was carried out overnight under standard conditions (5% CO2, 21% O2, 37° C., moistened). The following morning the cells were incubated with various concentrations of the test substances (0-10 μmol/l) in a hypoxia chamber (1% O2). After 24 h, Bright Glo reagent (Promega, Wisconsin, USA) was added in accordance with the manufacturer's instructions, and after 5 min the luminescence was measured. Cells which were incubated under normoxia served as background controls.
The IC50 values from this assay for representative working examples are listed in the following table (in same cases as means of up to four individual determinations): […]

Row | Structure (SMILES) | IC50
1 | Cc1cc(/C(F)=C/c2ccc(C(C)(C)C(F)(F)F)cc2)nn1Cc1cccc(C(=O)N2CCN(C3CC3)CC2)c1 [Example 39, (4-Cyclopropylpiperazin-1-yl) {3-[(3-{(Z)-1-fluoro-2-[4-(1,1,1-trifluoro-2-methylpropan-2-yl)-phenyl]vinyl}-5-methyl-1H-pyrazol-1-yl)methyl]phenyl}methanone] | 2 nM
2 | CC(=O)OC1(c2cccc(Cn3nc(/C(F)=C/c4ccc(C5(C(F)(F)F)CC5)cc4)cc3C)c2)CC1 [Example 46, 1-[3-({3-[(Z)-1-Fluoro-2-{4-[1-(trifluoromethyl)cyclopropyl]phenyl}vinyl]-5-methyl-1H-pyrazol-1-yl}methyl)phenyl]cyclopropyl acetate] | 0.7 nM
3 | Cc1cc(/C(F)=C/c2ccc(OC(F)(F)F)cc2)nn1Cc1cccc(C2(O)CC2)c1 [Example 48, 1-{3-[(3-{(Z)-1-Fluoro-2-[4-(trifluoromethoxy)phenyl]vinyl}-5-methyl-1H-pyrazol-1-yl)methyl]-phenyl}cyclopropanol] | 2 nM
4 | Cc1cc(/C(F)=C/c2ccc(C(C)(C)C(F)(F)F)cc2)nn1Cc1cccc(C2(O)CC2)c1 [Example 49, 1-{3-[(3-{(Z)-1-Fluoro-2-[4-(1,1,1-trifluoro-2-methylpropan-2-yl)phenyl]vinyl}-5-methyl-1H-pyrazol-1-yl)methyl]phenyl}cyclopropanol] | 0.8 nM
5 | Cc1cc(/C(F)=C/c2ccc(C3(C(F)(F)F)CC3)cc2)nn1Cc1cccc(C2(O)CC2)c1 [Example 51, 1-[3-({3-[(Z)-1-Fluoro-2-{4-[1-(trifluoromethyl)cyclopropyl]phenyl}vinyl]-5-methyl-1H-pyrazol-1-yl}methyl)phenyl]cyclopropanol] | 1 nM
6 | Cc1cc(/C(F)=C/c2ccc(OC(F)(F)F)cc2)nn1Cc1cccc(C(C)(C)O)c1 [Example 53, 2-{3-[(3-{(Z)-1-Fluoro-2-[4-(trifluoromethoxy)phenyl]vinyl}-5-methyl-1H-pyrazol-1-yl)methyl]-phenyl}propan-2-ol] | 4 nM
7 | Cc1cc(/C(F)=C/c2ccc(C(C)(C)C(F)(F)F)cc2)nn1Cc1cccc(C(C)(C)O)c1 [Example 54, 2-{3-[(3-{(Z)-1-Fluoro-2-[4-(1,1,1-trifluoro-2-methylpropan-2-yl)phenyl]vinyl}-5-methyl-1H-pyrazol-1-yl)methyl]phenyl}propan-2-ol] | 3 nM
8 | Cc1cc(/C(F)=C/c2ccc(C(C)(C)C(F)(F)F)c(F)c2)nn1Cc1cccc(C2(CO)CC2)c1 [Example 58, (1-{3-[(3-{(Z)-1-Fluoro-2-[3-fluoro-4-(1,1,1-trifluoro-2-methylpropan-2-yl)phenyl]vinyl}-5-methyl-1H-pyrazol-1-yl)methyl]phenyl}cyclopropyl)methanol] | 2 nM
9 | Cc1cc(/C(F)=C/c2ccc(C(C)(C)C(F)(F)F)cc2)nn1Cc1cccc(C(F)(F)CO)c1 [Example 62, 2,2-Difluoro-2-{3-[(3-{(Z)-1-fluoro-2-[4-(1,1,1-trifluoro-2-methylpropan-2-yl)phenyl]vinyl}-5-methyl-1H-pyrazol-1-yl)methyl]phenyl}ethanol] | 2.5 nM
10 | CNc1ccc(Cn2nc(/C(F)=C/c3ccc(OC(F)(F)F)cc3)cc2C)cn1 [Example 79, 5-[(3-{(Z)-1-Fluoro-2-[4-(trifluoromethoxy)phenyl]vinyl}-5-methyl-1H-pyrazol-1-yl)methyl]-N-methylpyridine-2-amine] | 1 nM
11 | CNc1ccc(Cn2nc(/C(F)=C/c3ccc(OC(F)(F)F)c(F)c3)cc2C)cn1 [Example 80, 5-[(3-{(Z)-1-Fluoro-2-[3-fluoro-4-(trifluoromethoxy)phenyl]vinyl}-5-methyl-1H-pyrazol-1-yl)-methyl]-N-methylpyridine-2-amine] | 2.8 nM
12 | CNc1ccc(Cn2nc(/C(F)=C/c3ccc(SC(F)(F)F)cc3)cc2C)cn1 [Example 82, 5-({3-[(Z)-1-Fluoro-2-{4-[(trifluoromethyl)sulphanyl]phenyl}vinyl]-5-methyl-1H-pyrazol-1-yl}-methyl)-N-methylpyridine-2-amine] | 1 nM

The remaining lines, values ahead:

Row | IC50 | Structure (SMILES)
13 | 2 nM | Cc1cc(/C(F)=C/c2ccc(C3(C(F)(F)F)CC3)cc2)nn1Cc1cccc(C(=O)N2CCN(C3CC3)CC2)c1 [Example 40, (4-Cyclopropylpiperazin-1-yl)[3-({3-[(Z)-1-fluoro-2-{4-[1-(trifluoromethyl)cyclopropyl]phenyl}-vinyl]-5-methyl-1H-pyrazol-1-yl}methyl)phenyl]methanone]
14 | 3 nM | Cc1cc(/C(F)=C/c2ccc(C(F)(F)F)cc2)nn1Cc1cccc(C(=O)N2CCN(C3CC3)CC2)c1 [Example 41, (4-Cyclopropylpiperazin-1-yl) {3-[(3-{(Z)-1-fluoro-2-[4-(trifluoromethyl)phenyl]vinyl}-5-methyl-1H-pyrazol-1-yl)methyl]phenyl}methanone]
15 | 4 nM | Cc1cc(/C(F)=C/c2ccc(OC(F)(F)F)cc2)nn1Cc1cccc(C(=O)N2CCN(C)CC2)c1 [Example 42, {3-[(3-{(Z)-1-Fluoro-2-[4-(trifluoromethoxy)phenyl]vinyl}-5-methyl-1H-pyrazol-1-yl)methyl]-phenyl}(4-methylpiperazin-1-yl)methanone]
16 | 2 nM | CC(=O)OC1(c2cccc(Cn3nc(/C(F)=C/c4ccc(OC(F)(F)F)cc4)cc3C)c2)CC1 [Example 43, 1-{3-[(3-{(Z)-1-Fluoro-2-[4-(trifluoromethoxy)phenyl]vinyl}-5-methyl-1H-pyrazol-1-yl)methyl]phenyl}cyclopropyl acetate]
17 | 0.5 nM | CC(=O)OC1(c2cccc(Cn3nc(/C(F)=C/c4ccc(C(C)(C)C(F)(F)F)cc4)cc3C)c2)CC1 [Example 44, 1-{3-[(3-{(Z)-1-Fluoro-2-[4-(1,1,1-trifluoro-2-methylpropan-2-yl)phenyl]vinyl}-5-methyl-1H-pyrazol-1-yl)methyl]phenyl}cyclopropyl acetate]
18 | 1 nM | Cc1cc(/C(F)=C/c2ccc(C(C)(C)C(F)(F)F)c(F)c2)nn1Cc1cccc(C2(O)CC2)c1 [Example 50, 1-{3-[(3-{(Z)-1-Fluoro-2-[3-fluoro-4-(1,1,1-trifluoro-2-methylpropan-2-yl)phenyl]vinyl}-5-methyl-1H-pyrazol-1-yl)methyl]phenyl}cyclopropanol]
19 | 1 nM | Cc1cc(/C(F)=C/c2ccc(C(C)(C)C)cc2)nn1Cc1cccc(C2(O)CC2)c1 [Example 52, 1-[3-({3-[(Z)-2-(4-tert-Butylphenyl)-1-fluorovinyl]-5-methyl-1H-pyrazol-1-yl}methyl)phenyl]-cyclopropanol]
20 | 4 nM | Cc1cc(/C(F)=C/c2ccc(OC(F)(F)F)cc2)nn1Cc1cccc(C2(CO)CC2)c1 [Example 55, (1-{3-[(3-{(Z)-1-Fluoro-2-[4-(trifluoromethoxy)phenyl]vinyl}-5-methyl-1H-pyrazol-1-yl)methyl]-phenyl}cyclopropyl)methanol]
21 | 2 nM | Cc1cc(/C(F)=C/c2ccc(SC(F)(F)F)cc2)nn1Cc1cccc(C2(CO)CC2)c1 [Example 56, {1-[3-({3-[(Z)-1-Fluoro-2-{4-[(trifluoromethyl)sulphanyl]phenyl}vinyl]-5-methyl-1H-pyrazol-1-yl}methyl)phenyl]cyclopropyl}methanol]
22 | 1 nM | Cc1cc(/C(F)=C/c2ccc(C(C)(C)C(F)(F)F)cc2)nn1Cc1cccc(C2(CO)CC2)c1 [Example 57, (1-{3-[(3-{(Z)-1-Fluoro-2-[4-(1,1,1-trifluoro-2-methylpropan-2-yl)phenyl]vinyl}-5-methyl-1H-pyrazol-1-yl)methyl]phenyl}cyclopropyl)methanol]
23 | 2 nM | Cc1cc(/C(F)=C/c2ccc(C3(C(F)(F)F)CC3)cc2)nn1Cc1cccc(C2(CO)CC2)c1 [Example 59, {1-[3-({3-[(Z)-1-Fluoro-2-{4-[1-(trifluoromethyl)cyclopropyl]phenyl}vinyl]-5-methyl-1H-pyrazol-1-yl}methyl)phenyl]cyclopropyl}methanol]
24 | 4 nM | Cc1cc(/C(F)=C/c2ccc(OC(F)(F)F)cc2)nn1Cc1cccc(C(F)(F)CO)c1 [Example 61, 2,2-Difluoro-2-{3-[(3-{(Z)-1-fluoro-2-[4-(trifluoromethoxy)phenyl]vinyl}-5-methyl-1H-pyrazol-1-yl)methyl]phenyl}ethanol]
25 | 3 nM | Cc1cc(/C(F)=C/c2ccc(C3(C(F)(F)F)CC3)cc2)nn1Cc1cccc(C(F)(F)CO)c1 [Example 63, 2,2-Difluoro-2-[3-({3-[(Z)-1-fluoro-2-{4-[1-(trifluoromethyl)cyclopropyl]phenyl}vinyl]-5-methyl-1H-pyrazol-1-yl}methyl)phenyl]ethanol]
26 | 2 nM | Cc1cc(/C(F)=C/c2ccc(C(C)(C)C(F)(F)F)cc2)nn1Cc1cccc(CC(C)(C)O)c1 [Example 64, 1-{3-[(3-{(Z)-1-Fluoro-2-[4-(1,1,1-trifluoro-2-methylpropan-2-yl)phenyl]vinyl}-5-methyl-1H-pyrazol-1-yl)methyl]phenyl}-2-methylpropan-2-ol]
27 | 3 nM | CNc1ccc(Cn2nc(/C(F)=C/c3ccc(OC(F)(F)F)c(Cl)c3)cc2C)cn1 [Example 81, 5-[(3-{(Z)-2-[3-Chloro-4-(trifluoromethoxy)phenyl]-1-fluorovinyl}-5-methyl-1H-pyrazol-1-yl)-methyl]-N-methylpyridine-2-amine]
28 | 0.4 nM | CNc1ccc(Cn2nc(/C(F)=C/c3ccc(C(C)(C)C(F)(F)F)cc3)cc2C)cn1 [Example 83, 5-[(3-{(Z)-1-Fluoro-2-[4-(1,1,1-trifluoro-2-methylpropan-2-yl)phenyl]vinyl}-5-methyl-1H-pyrazol-1-yl)methyl]-N-methylpyridine-2-amine]
